# Reference: patent publication US20100234379A1, “Dual modulation of endocannabinoid transport and fatty-acid amide hydrolase for treatment of excitotoxicity” (priority 2005, published 2010)
# Tested on: not given
# Test: not given
# Settings: not given
row,Compound,melting point [°C]
1,O=S(=O)(F)CCCCCCCc1ccc(OCc2ccccc2)cc1,35 to 38
2,O=S(=O)(F)CCCCCc1ccc(OCc2ccccc2)cc1,66 to 68
3,O=S(=O)(F)CCCCCCCc1ccc(O)cc1,47 to 51
4,O=S(=O)(F)CCCCCc1ccc(O)cc1,32 to 35
5,O=S(=O)(F)CCCCOc1ccccc1,74 to 76
6,COS(=O)(=O)CCCCCCCc1ccc(OCc2ccccc2)cc1,57 to 59
7,O=C(CCCOc1ccc(OCc2ccccc2)cc1)C(F)(F)F,59 to 61
8,O=C(CCCCCOc1ccccc1OCc1ccccc1)C(F)(F)F,31 to 32
9,O=C(CCCCOc1ccccc1)C(F)(F)F,50 to 51
10,O=C(CCCCOc1ccc(OCc2ccccc2)cc1)C(F)(F)F,95.5 to 96
11,O=C(CCCCCOc1ccc(OCc2ccccc2)cc1)C(F)(F)F,59 to 60
12,O=C(CCCCCCOc1ccc(OCc2ccccc2)cc1)C(F)(F)F,82 to 83
13,O=C(CCCOc1ccccc1OCc1ccccc1)C(F)(F)F,50 to 51
14,O=C(CCCCOc1ccc(O)cc1)C(F)(F)F,63 to 64
15,O=C(CCCCCCOc1ccc(O)cc1)C(F)(F)F,61 to 62
16,O=C(CCCCOc1ccccc1O)C(F)(F)F,51 to 52
17,O=C(NCCCc1ccccc1)NCc1ccccn1,89 to 90
18,O=C(NCCCc1ccccc1)Nc1ccccn1,127 to 128
19,Cc1nnc(C(=O)CCCCCCOc2ccccc2)o1,75 to 77
20,Cc1nnc(C(=O)CCCCCCOc2ccc(OCc3ccccc3)cc2)o1,118 to 120
21,Cc1nnc(C(=O)CCCCCCOc2ccc(O)cc2)o1,134 to 135
22,O=C1c2ccccc2S(=O)(=O)N1CCCCOc1ccccc1,92 to 94
23,O=C1c2ccccc2S(=O)(=O)N1CCCCOc1ccc(OCc2ccccc2)cc1,82 to 84
24,O=C1c2ccccc2S(=O)(=O)N1CCCCOc1ccc(O)cc1,107 to 109
25,Oc1cccc(OCCCC(O)(O)C(F)(F)F)c1 (hydrate or solvate),76 to 77

# Tested on: ERK and FAK (pERK2, pFAK)
# Test: Activation of ERK and FAK (CB1 signaling) in hippocampal slice cultures, immunoblot
# Assay type: cell-based, rat
# Settings: H 10 μM
# Protocol: A: Untreated slices were used to determine basal antigen levels (lane 1), while other slices were exposed to the CB1 agonist R-methanandamide (A) in the absence (lane 2) or presence of the antagonist H (lane 3). B: Integrated optical densities for pERK2 (mean±SEM) were determined by image analysis (ANOVA: P=0.014). C: Treatment groups include control slices (lane 1) and slices treated with the FAAH inhibitor B (lane 2), the transporter inhibitor C (lane 3), the B/C combination (lane 4), or B/C with 20 μM F (lane 5). D: Image analysis data for pERK2 are shown (ANOVA: P=0.015).
# Hippocampal slice cultures. Sprague-Dawley rats (Charles River Laboratories; Wilmington, Mass.) were housed following guidelines from National Institutes of Health. […] Slices were maintained in culture for a 15-20-day maturation period before experiments were initiated. Activation of extracellular signal regulated-kinase (ERK) and focal adhesion kinase (FAK). […] Other slices were treated with 100-500 nM B, 10-50 μM C, or a combination of the two in the absence or presence of either H or F (Cal-Biochem). […] Integrated optical density of the bands was determined at high resolution with BIOQUANT software (R & M Biometrics, Nashville, Tenn.). […]
row,Compound,prevention of the effects of agonist treatment and of B/C potentiation on ERK/FAK activation by CB1 antagonist
1,Cc1c(C(=O)NN2CCOCC2)nn(-c2ccc(Cl)cc2Cl)c1-c1ccc(I)cc1 [H],prevented

# Same assay, conditions: slices treated 30 min; A 10-50 μM; 100 nM B and 10 μM C applied individually; B/C combination
row,Compound,"activation of ERK and FAK (pERK2, pFAK over basal levels)"
1,"CCCCC/C=C\C/C=C\C/C=C\C/C=C\CCCC(=O)N[C@H](C)CO [A, R-methanandamide]",results in the activation of extracellular signal regulated-kinase (ERK) as well as focal adhesion kinase (FAK)

# Tested on: AMPA-injected dorsal hippocampus of adult Sprague-Dawley rats
# Test: not given
# Assay type: in vivo, rat
# Settings: co-injected with 63 nmol AMPA; 4-7 days post-injection
row,Compound,"protection of postsynaptic GluR1 levels (reduction of GluR1 decline), average [%]"
1,"CCCCC/C=C\C/C=C\C/C=C\C/C=C\CCCC(=O)N[C@H](C)CO [A, R-methanandamide]",58

# Same assay, conditions: co-injected with 63 nmol AMPA; A 250 nmol; B 0.75 nmol and C 75 nmol
row,Compound,reduction of spectrin BDPN evident 4-7 days post-insult [%]
1,"CCCCC/C=C\C/C=C\C/C=C\C/C=C\CCCC(=O)N[C@H](C)CO [A, R-methanandamide]",78

# Same assay, conditions: co-injected with AMPA, 4-7 days
row,Compound,"protection of presynaptic markers (synapsin II, synaptophysin)"
1,"CCCCC/C=C\C/C=C\C/C=C\C/C=C\CCCC(=O)N[C@H](C)CO [A, R-methanandamide]",protected by a similar level

# Tested on: hippocampal slice cultures
# Test: In vitro excitotoxicity: AMPA insult in cultured hippocampal slices, immunoblot for BDPN and GluR1
# Settings: 100 μM AMPA 20 min, drug post-insult, 24 h; B/C 0.5 μM and 50 μM
# Protocol: Hippocampal slice cultures were infused with an excitotoxic level of AMPA for 20 min, followed by a 10-min washout period. […] The slices were harvested 24 h post-insult in groups of 6-8 each, along with untreated sister cultures, and assessed by immunoblotting for calpain-mediated spectrin breakdown product BDPN (A, C) and the postsynaptic marker GluR1 (B, D). Representative antigen staining is shown with a protein load control (con) from the same blots. Graphs contain integrated optical densities (mean±SEM) as determined by image analysis.
# Chemicals and antibodies. […] Glutamatergic ligands and antagonists were obtained from Tocris (Ellisville, Mo.). […] Hippocampal slice cultures. Sprague-Dawley rats (Charles River Laboratories; Wilmington, Mass.) were housed following guidelines from National Institutes of Health. […] Slices were maintained in culture for a 15-20-day maturation period before experiments were initiated. […] Integrated optical density of the bands was determined at high resolution with BIOQUANT software (R & M Biometrics, Nashville, Tenn.). […] At such time, slices were rapidly harvested, homogenized in lysis buffer, and analyzed by immunoblot for BDPN, GluR1, and protein load control.
row,Compound,reduction of cytoskeletal damage (calpain-mediated spectrin breakdown product BDPN) [%]
1,"CCCCC/C=C\C/C=C\C/C=C\C/C=C\CCCC(=O)N[C@H](C)CO [A, R-methanandamide]",72
